In general, EC50 refers to the concentration at which the effect is half-maximal.

Structures are written as SMILES. A value given as a limit tells only on which side of the number the result lay.

This is an account of results in PubChem BioAssay AID2253 (Southern Research Specialized Biocontainment Screening …, 2010).

The experiment relates to THP-1 viability, CellTiter-Glo luminescence, 72 h. Kind of experiment: THP-1 cell cytotoxicity, dose response, cytotoxicity control for Salmonella PhoP regulon inhibitors, S. typhimurium screen hits (AID 2253).
In the case of `c1csc(C2Nc3ccccc3-c3nc4ccccc4n32)c1` (stereo not drawn), the half-maximal effective concentration (EC50) was 33.7 µM.

Turning to `CCCCCCCCCCCCCCCC[n+]1cccc2ccccc21`, the half-maximal effective concentration (EC50) was 0.27 µM.

Take `COc1ccc2c(c1)[nH]c1c(N3CCN(Cc4ccc5c(c4)OCO5)CC3)ncnc12`: the EC50 is 6.85 µM. Next, `COc1ccc(Nc2ccc3c(c2)=NC2(CCCCC2)[N+]=3[O-])cc1`: 4.59 µM; `NC1=NC[C@H](Cc2ccccc2)N1CCCCC1CCCCC1`: 3.71 µM; `Cc1ccc(C(C[N+](=O)[O-])c2c(C)cc3ccccn23)cc1` (stereo not drawn): 15.4 µM. To `Cc1ccc(C(=O)N/N=C/c2cc(Br)ccc2O)cn1` belongs 1.78 µM; to `Cc1[nH]n(-c2ccccc2)c(=O)c1/C=N/Nc1nncc(-c2ccccc2)n1`, 0.57 µM. Regarding `Cc1cc(C)c2ccc(N)nc2c1O`, the EC50 was 2.91 µM.

In the case of `O=S1(=O)CCC(NC(=S)SCCOc2ccccc2)C1` (stereo not drawn), the concentration for a half-maximal effect (EC50) was 16.2 µM.

`C/C(=N\NC(=S)Nc1ccc(F)cc1)c1ccc2c(c1)OCCO2`: the EC50 was 10.5 µM. Next, `CC[C@@H](C)[C@H](CNC)NC[C@@H](Cc1cccc2ccccc12)NCCc1cccc(C(F)(F)F)c1`: 7 µM. To `COc1ccccc1-c1c(C#N)c(N)nc2c1CCc1ccccc1-2` belongs 13.2 µM. To `CC(C)CCNC(=S)Nc1ccc([N+](=O)[O-])cc1` belongs 16.5 µM; to `CC(C)NC1=C(Cl)C(=O)c2ccccc2C1=O`, 18.9 µM; to `CC(=O)NC(c1cccc([N+](=O)[O-])c1)c1ccc2cccnc2c1O` (stereo not drawn), 0.49 µM.

In the case of `CN1CCN(C(c2ccccn2)c2cc(Cl)c3cccnc3c2O)CC1` (stereo not drawn), the EC50 was 9.2 µM. To `Oc1ccccc1CN1CCCN(Cc2ccccc2O)C1` belongs 23.8 µM; to `O=C(Nc1ccc(Br)cc1)c1ccc(F)c(S(=O)(=O)NCc2cccs2)c1`, 21.7 µM. Next, `COc1ccc(C)cc1C(=O)CCC(=O)Nc1ccccc1N1CCOCC1`: 8.33 µM; `O=C(Cn1nc(CNc2ccc(Cl)cc2)[n+]2c1CCCCC2)c1ccc(Br)cc1`: 11.6 µM; `Cc1cc(C(=O)N/N=C/c2cc(Br)cc([N+](=O)[O-])c2O)c2ccccc2n1`: 23 µM. To `O=C(Nc1nc2cc3c(cc2s1)OCO3)C1=COCCO1` belongs 6.67 µM; to `Cc1ccc2[nH]c3c(NCc4ccccc4)ncnc3c2c1`, 17.1 µM. Turning to `O=C(N/N=C/c1cc([N+](=O)[O-])ccc1O)c1ccncc1`, the EC50 is 15.1 µM.

For the compound `CC1CCC(C(C)C)C(OC(=O)Cn2c(-c3ccc(Cl)cc3)[n+](C)c3ccccc32)C1` (stereo not drawn), the EC50 was 2.13 µM. To `Nc1nc(F)nc2c1ncn2[C@@H]1O[C@H](CO)[C@@H](O)[C@H]1O` belongs 0.3 µM; to `Nc1nc2ccccc2n1CCOc1ccccc1Cl`, 12.8 µM. With `COc1c(Cl)cnn(-c2ccc(C)cc2)c1=O`, the EC50 is 16.5 µM. As to `Cc1ccc2nc(C)c(CN3CCN(c4ccc([N+](=O)[O-])cc4Cl)CC3)n2c1`, the EC50 is 19.7 µM. To `Cc1ccc(Nc2nc(Cl)nc(N(C)C#N)n2)cc1` belongs 13.6 µM. Next, `Cc1ccc(/C=C/C(=O)c2ccccc(=O)c2O)cc1C`: 17.2 µM; `Nc1cc(Cl)c2nonc2c1[N+](=O)[O-]`: 2.24 µM; `CCCCCc1ccc(OCCC[n+]2ccccc2)c(CCCCC)c1`: 2.78 µM. Next, `Oc1c(C(Nc2nc3ccccc3s2)c2ccco2)ccc2cccnc12` (stereo not drawn): 0.65 µM; `Cc1cc(/C=N/n2c(COc3ccccc3)nc3ccccc3c2=O)c(O)c([N+](=O)[O-])c1`: 4.71 µM.

With `Nc1ncn(C2O[C@H](CO)[C@@H](O)[C@H]2O)c(=O)n1` (stereo partly drawn), the EC50 was 10.8 µM. On to `COc1cc(C(=O)NC(=S)Nc2ccc3oc(=O)ccc3c2)cc(OC)c1OC`, for which the EC50 was 45.9 µM. Regarding `O=C(NCCN1CCOCC1)c1ccc2ccccc2c1`, the EC50 is less than 0.1 µM. To `CCn1c(C)cc(=S)c2ccccc21` belongs 48.2 µM.

Turning to `CCOC(=O)CSc1n[nH]c(NC(=O)c2cccc(C)c2)n1`, the EC50 was 48.7 µM. Next, `C/C(=N\Nc1nc2ccccc2[nH]1)c1ccc(Cl)s1`: 32.6 µM. On to `Cc1ccc(C(c2cc(Cl)c3cccnc3c2O)N2CCN(C)CC2)cc1` (stereo not drawn), for which the EC50 is 1.89 µM. As to `CC(C(=O)Nc1cc([N+](=O)[O-])ccc1Cl)N1CCN(c2ccccc2O)CC1` (stereo not drawn), the EC50 is 25.6 µM.

For the compound `Cc1ccccc1-n1nnnc1Sc1nnnn1-c1ccccc1`, the EC50 was 12 µM.

On to `Oc1ccccc1NCC(O)Cn1ccc2ccccc21` (stereo not drawn), for which the EC50 was 28 µM. Next, `Oc1c(C(Nc2ccccn2)c2ccccn2)ccc2cccnc12` (stereo not drawn): 4.23 µM.

`Cc1ccc(-c2c[n+](CC(=O)Nc3nc(-c4ccc(F)cc4)cs3)c3n2CCC3)cc1`: the EC50 is 9.65 µM. Next, `Cc1ccc(C(=O)Sc2cccccc2=O)cc1`: 2.64 µM. Turning to `CCCc1nc2c(=O)n(C)c(=O)nc-2n(C)n1`, the EC50 was 2.36 µM.

Regarding `Cc1ccc(O)c(-c2cc(-c3cccc(F)c3)n[nH]2)c1`, the EC50 is 18.2 µM. To `O=C(C[n+]1cccc(CNC(=O)c2ccc(OC(F)F)cc2)c1)Nc1ccc(SC(F)F)cc1` belongs 11.7 µM; to `CN(Cc1ccccc1)CC(O)COc1ccc(CNCc2ccc(Cl)s2)cc1` (stereo not drawn), 33.4 µM. Next, `Cc1cc(C)cc(OC(=O)CS(=O)c2ccc(C(F)(F)F)cc2[N+](=O)[O-])c1` (stereo not drawn): 5.98 µM.

`Cc1cccc(Nc2c3c(nc4ccccc24)CCC3)c1`: the EC50 is 9.08 µM. Regarding `CSc1ccc(C(=O)/C=C/c2ccc(N)cc2)cc1`, the EC50 is 21.7 µM. For the compound `O=C1c2ccccc2NC(c2ccc(-c3cccc([N+](=O)[O-])c3)o2)N1O` (stereo not drawn), the EC50 was 6.61 µM.

`O=c1[nH][nH]c(-c2ccccc2O)c1C(C[N+](=O)[O-])c1cccc(Cl)c1` (stereo not drawn): the EC50 was 33.4 µM. To `NC1=NC[C@H](Cc2ccc(O)cc2)N1CCC12CC3CC(CC(C3)C1)C2` belongs 10.6 µM; to `C=CCc1cccc(C2Nc3ccccc3C(=O)N2O)c1O` (stereo not drawn), 43.1 µM; to `O=C(C[n+]1cc(-c2ccc(Cl)c(Cl)c2)n2c1CCC2)N1c2ccccc2Sc2ccccc21`, 17.8 µM. Next, `O=C(Oc1c(Cl)cc(Cl)c2cccnc12)c1ccco1`: 11.5 µM; `CSc1ccc2c(c1)C(N1CCN(C)CC1)Cc1ccccc1S2` (stereo not drawn): 10.6 µM; `O=C(c1[nH]ncc1-c1ccc(Cl)cc1)C1CO1` (stereo not drawn): 13.3 µM. Next, `Oc1ccc(C=Nc2cccc3ncccc23)c(O)c1`: 43.3 µM. With `O=C1c2cccc(OCC(=O)N3N=C(c4cccs4)CC3c3ccc(F)cc3)c2CCN1Cc1cccnc1` (stereo not drawn), the EC50 is 47.9 µM. To `O=C(Nc1ccc(O)cc1)c1cc2n(n1)C(C(F)(F)F)CC(c1ccco1)N2` (stereo not drawn) belongs 11.9 µM; to `C/C(CC(=O)Nc1ccc(Cl)c(C(F)(F)F)c1)=N\NC(=O)c1ccccc1O`, 20.4 µM; to `COC(=O)c1cc(C)nc2c1C(=O)C(=O)C=C2N1CCOCC1`, 2.97 µM. Next, `O=C(Cc1ccccc1)Nc1cccc(N2C(=O)C=CC2=O)c1`: 16.1 µM. Next, `CCCC(=O)NC(c1ccc(Cl)cc1)c1ccc2cccnc2c1O` (stereo not drawn): 0.38 µM; `CC1(C)CC(=O)C2=C(C1)OC1=C(C(=O)CC(C)(C)C1)C2c1ccc(O)cc1O`: 5.36 µM; `CCn1c2ccccc2c2cc(N)ccc21`: 16.1 µM. For the compound `CCCCCOc1ccc(Br)cc1CSC(=N)N`, the EC50 is 1.86 µM. Next, `O=c1[nH]c(NNC(=S)NCc2ccccc2)nc2c1C1(CCCCC1)Cc1ccccc1-2`: 45.1 µM; `Oc1c(C(Nc2cccc(C(F)(F)F)c2)c2cccnc2)ccc2cccnc12` (stereo not drawn): 7.65 µM; `N/C(=N\OC(=O)N1c2ccccc2Sc2ccccc21)c1ccccc1`: 25.1 µM. To `Cc1cccc(N2CCc3c2nc2ccccc2c3N)c1` belongs 47.6 µM; to `CN1CCN(C(c2ccc(Br)cc2)c2cc(Cl)c3cccnc3c2O)CC1` (stereo not drawn), 3.87 µM; to `O=[N+]([O-])c1cc(Cl)c2cccnc2c1O`, 27.7 µM. To `C/C(=N\Nc1nc2ccccc2[nH]1)c1ccccn1` belongs 0.92 µM. For `Clc1ccc(C[n+]2cc(-c3ccc(Cl)cc3)n3c2CCC3)cc1`, the EC50 was 17.7 µM. To `Cn1c(-c2ccc3c(c2)OCO3)cnc1NCc1cccc(Cl)c1` belongs 15.5 µM; to `CCN(CC(=O)NC(C)(C)C)C(=O)COc1c(Cl)cc(Cl)c2ccc(C)nc12`, 37.3 µM. Consider `c1ccc(Nc2ccnc(Nc3ccccc3)n2)cc1`, for which the EC50 is 35 µM. Next, `CCCCCCCCCC[N+](C)(C)CC/C=C1/c2ccccc2Sc2ccc(Cl)cc21`: 1.67 µM.

Regarding `O=C(Nc1ccc(S(=O)(=O)N2CCCC2)cc1)c1ccc(CN2CCc3ccccc3C2)cc1`, the EC50 was 26.5 µM. To `Cc1sc2ncnc(N/N=C/c3ccccc3O)c2c1C` belongs 0.51 µM; to `O=C(Nc1nc(-c2ccncc2)cs1)C1c2ccccc2Oc2ccccc21`, 16.9 µM.

Regarding `Cc1cccc(Sc2c([N+](=O)[O-])ncn2C)c1`, the EC50 was 32 µM.

Take `N=c1n(CC(=O)c2ccc([N+](=O)[O-])cc2)c2ccccc2n1Cc1ccccc1`: the EC50 is 14.3 µM.

As to `Oc1c(Cl)cc(Cl)c(Cl)c1Cc1c(O)c(Cl)cc(Cl)c1Cl`, the EC50 is 14.7 µM. Turning to `CCn1cc(C(=O)O)c(=O)c2cc(F)c(N3CCN(C(=S)NC(=O)c4c(OC)cccc4OC)CC3)cc21`, the EC50 was 43.5 µM. Consider `O=c1[nH]c(CSc2ncc(-c3ccc(F)cc3)n2Cc2ccco2)nc2ccccc12`, for which the EC50 was 47 µM. Take `CC1OC(Nc2cccc3ccccc23)C(O)C(O)C1O` (stereo not drawn): the EC50 was 12 µM. Next, `Oc1ccc(CN2CCCc3ccccc32)c2cccnc12`: 3.37 µM; `CCCCOc1ccc(Br)cc1CSC(=N)N`: 5.78 µM; `N#C/C(=C\c1ccc(F)c(F)c1)C(=O)NC1CCCCC1`: 46.6 µM.

For `c1ccc(-c2nnc(-c3ccccn3)nc2NC2CCCCC2)cc1`, the EC50 was 1.37 µM.

For `CN(C)S(=O)(=O)c1cccc(NC(=S)N/N=C/c2cc(Br)ccc2O)c1`, the EC50 was 0.65 µM.

On to `Clc1ccc(OCCn2ccnc2)c2ccccc12`, for which the EC50 was 43.5 µM. To `N=c1n(CCO)c2ccccc2n1Cc1ccc(Cl)cc1` belongs 41.1 µM; to `c1cnc2c(c1)ccc1cccnc12`, 3.8 µM.
